Where a chain is given by its changes, count along the chain named.
Legend:
[1] = target: T1, human P2X3 receptor (hP2X3-MFC) (Homo sapiens, UniProt P56373); assay: SPA 3H-ATP saturation binding
T1 sequence (P56373 6-364): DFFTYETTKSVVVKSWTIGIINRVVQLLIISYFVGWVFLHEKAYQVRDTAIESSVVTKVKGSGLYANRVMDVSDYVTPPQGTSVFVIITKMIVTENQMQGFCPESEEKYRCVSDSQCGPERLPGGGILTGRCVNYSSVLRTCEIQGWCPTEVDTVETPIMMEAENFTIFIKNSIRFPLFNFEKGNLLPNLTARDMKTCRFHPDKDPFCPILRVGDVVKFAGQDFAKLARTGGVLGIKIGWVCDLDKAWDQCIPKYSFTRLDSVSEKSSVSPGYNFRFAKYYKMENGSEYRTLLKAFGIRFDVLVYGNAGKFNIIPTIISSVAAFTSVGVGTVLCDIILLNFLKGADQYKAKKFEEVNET

[2] = target: T2, human P2X3 receptor (hP2X3-MFCslow) (Homo sapiens, UniProt P56373, T13P/S15V/V16I); assay: SPA 3H-ATP saturation binding
T2 sequence (P56373 6-364 T13P/S15V/V16I): T1 sequence (P56373 6-364) with T8P, S10V, V11I

[3] = target: T1, human P2X3 receptor (hP2X3-MFC); assay: X-ray structure of soaked crystal; type: binding

Ki [3] [nM] | Compound | Kd [1] [nM] | Kd [2] [nM]
 | Nc1ncnc2c1ncn2[C@@H]1O[C@H](COP(=O)(O)OP(=O)(O)OP(=O)(O)O)[C@@H](O)[C@H]1O [ATP] | 2.8 ± 0.1 | 3.3 ± 0.3
1.9 ± 0.1 | CSc1nc(N)c2ncn([C@@H]3O[C@H](COP(=O)(O)OP(=O)(O)OP(=O)(O)O)[C@@H](O)[C@H]3O)c2n1 [2-methylthio-ATP, 2-(methylthio)adenosine 5′-triphosphate] |  | 

Reference: article PMC5161641 (Nature, 2016)
